From US11802120B2, “Fused cyclic urea derivatives as CRHR2 antagonist” (RaQualia Pharma Inc., priority 2018, dated 2023)

Biological target: T1, human CRHR2-alpha (Homo sapiens, UniProt Q13324)
T1 sequence (Q13324 1-411): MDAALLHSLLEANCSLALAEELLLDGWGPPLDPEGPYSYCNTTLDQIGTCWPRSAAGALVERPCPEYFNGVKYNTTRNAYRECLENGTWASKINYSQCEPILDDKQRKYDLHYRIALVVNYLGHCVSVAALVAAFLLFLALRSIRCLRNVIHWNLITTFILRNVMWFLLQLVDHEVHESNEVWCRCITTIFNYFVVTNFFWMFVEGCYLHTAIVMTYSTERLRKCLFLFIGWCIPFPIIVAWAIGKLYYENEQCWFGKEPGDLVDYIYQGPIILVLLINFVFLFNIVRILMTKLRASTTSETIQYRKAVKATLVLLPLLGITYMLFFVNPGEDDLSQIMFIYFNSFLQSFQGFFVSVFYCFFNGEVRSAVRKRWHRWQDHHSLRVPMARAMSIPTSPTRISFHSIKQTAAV
Test: cAMP functional assay for human CRHR2 (LANCE Ultra cAMP, TR-FRET)
Assay type: cell-based
Conditions: CHO-K1 cells expressing human CRHR2-alpha, agonist human urocortin2 at EC80, cAMP; read-out: IC50 against CRHR2
Outline: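 Inhibition of agonist-driven cAMP was assessed in recombinant CHO-K1 cells at 25° C, using 30 min compound pretreatment and 30 min stimulation with EC80 human urocortin2 (CRHR2) or CRF (CRHR1). IC50 came from dose-response fitting.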

SMILES	IC50 [nM]
CNC(=O)c1ccc(-n2c(=O)n(C[C@H]3CC[C@H](NC(=O)c4cc(Cl)cnc4C)CC3)c3cc(OC)ccc32)cn1 [Example 194, 5-(3-(((1r,4r)-4-(5-chloro-2-methylnicotinamido)cyclohexyl)methyl)-5-methoxy-2-oxo-2,3-dihydro-1H-benzo[d]imidazol-1-yl)-N-methylpicolinamide]	< 300
Cc1ncc(Cl)cc1C(=O)N[C@H]1CC[C@H](Cn2c(=O)n(-c3ccc(N4CCC4)nc3)c3ccccc32)CC1 [Example 162, N-((1r,4r)-4-((3-(6-(azetidin-1-yl)pyridin-3-yl)-2-oxo-2,3-dihydro-1H-benzo[d]imidazol-1-yl)methyl)cyclo-hexyl)-5-chloro-2-methyl-nicotinamide]	< 300
Cc1ncc(Cl)cc1C(=O)N[C@H]1CC[C@H](Cn2c(=O)n(-c3ccc(C(=O)Nc4ccncc4)nc3)c3ccccc32)CC1 [Example 181, 5-(3-(((1r,4r)-4-(5-chloro-2-methylnicotinamido)cyclo-hexyl)methyl)-2-oxo-2,3-dihydro-1H-benzo[d]imidazol-1-yl)-N-(pyridin-4-yl) picolinamide]	< 300
CNC(=O)c1noc2cc(-n3c(=O)n(C[C@H]4CC[C@H](NC(=O)c5cc(Cl)cnc5C)CC4)c4ccccc43)ccc12 [Example 244, 6-(3-(((1r,4r)-4-(5-chloro-2-methylnicotinamido)cyclohexyl)methyl)-2-oxo-2,3-dihydro-1H-benzo[d]imidazol-1-yl)-N-methylbenzo[d]isoxazole-3-carboxamide]	< 300
O=C(N[C@H]1CC[C@H](Cn2c(=O)n(Cc3cccnc3)c3ccccc32)CC1)c1cc(Cl)cnc1C(F)(F)F [Example 284, 5-chloro-N-((1r,4r)-4-((2-oxo-3-(pyridin-3-ylmethyl)-2,3-dihydro-1H-benzo[d]imidazol-1-yl)methyl)cyclohexyl)-2-(trifluoromethyl)nicotinamide]	< 300
Cc1ncc(Cl)cc1C(=O)N[C@H]1CC[C@H](Cn2c(=O)n(-c3ccc(-c4ccccc4)nc3)c3ccccc32)CC1 [Example 89, 5-chloro-2-methyl-N-((1r,4r)-4-((2-oxo-3-(6-phenylpyridin-3-yl)-2,3-dihydro-1H-benzo[d]imidazol-1-yl)methyl)cyclohexyl)nicotinamide]	< 300
Cc1ncc(Cl)cc1C(=O)N[C@H]1CC[C@H](Cn2c(=O)n(C3Cc4ccccc4C3)c3ccccc32)CC1 [Example 184, 5-chloro-N-((1r,4r)-4-((3-(2,3-dihydro-1H-inden-2-yl)-2-oxo-2,3-dihydro-1H-benzo [d]imidazol-1-yl)methyl)cyclohexyl)-2-methyl-nicotinamide]	< 300
Cc1ncc(Cl)cc1C(=O)N[C@H]1CC[C@H](Cn2c(=O)n(-c3ccc(Br)cc3C#N)c3ccccc32)CC1 [Example 204, N-((1r,4r)-4-((3-(4-bromo-2-cyanophenyl)-2-oxo-2,3-dihydro-1H-benzo[d]imidazol-1-yl)methyl)cyclo-hexyl)-5-chloro-2-methylnicotinamide]	< 300
Cc1ncc(Cl)cc1C(=O)N[C@H]1CC[C@H](Cn2c(=O)n(-c3ccncc3C#N)c3ccccc32)CC1 [Example 249, 5-chloro-N-((1r,4r)-4-((3-(3-cyanopyridin-4-yl)-2-oxo-2,3-dihydro-1H-benzo[d]imidazol-1-yl)methyl)cyclohexyl)-2-methylnicotinamide]	< 300
Cc1ncc(Cl)cc1C(=O)N[C@H]1CC[C@H](Cn2c(=O)n(-c3ccc(N4CC(F)(F)C4)nc3)c3ccccc32)CC1 [Example 146, 5-chloro-N-((1r,4r)-4-((3-(6-(3,3-difluoroazetidin-1-yl)pyridin-3-yl)-2-oxo-2,3-dihydro-1H-benzo[d]imidazol-1-yl)methyl)cyclo-hexyl)-2-methylnicotinamide]	< 300

The next lines start with the values.

IC50 [nM]	SMILES
< 300	Cc1ncc(Cl)cc1C(=O)N[C@H]1CC[C@H](Cn2c(=O)n(-c3ccc(-n4ccnn4)nc3)c3ccccc32)CC1 [Example 511, N-((1r,4r)-4-((3-(6-(1H-1,2,3-triazol-1-yl)pyridin-3-yl)-2-oxo-2,3-dihydro-1H-benzo[d]imidazol-1-yl)methyl)cyclohexyl)-5-chloro-2-methylnicotinamide]
< 300	CNC(=O)c1ccc(-n2c(=O)n(C[C@H]3CC[C@H](NC(=O)c4cc(Cl)cnc4C(F)F)CC3)c3cccc(F)c32)cn1 [Example 628, 5-(3-(((1 r,4r)-4-(5-chloro-2-(difluoromethyl)nicotinamido)cyclohexyl)methyl)-7-fluoro-2-oxo-2,3-dihydro-1H-benzo [d]imidazol-1-yl)-N-methylpicolinamide]
< 300	Cc1ncc(Cl)cc1C(=O)N[C@H]1CC[C@H](Cn2c(=O)n(-c3ccc4ncccc4c3)c3ccccc32)CC1 [Example 344, 5-chloro-2-methyl-N-((1r,4r)-4-((2-oxo-3-(quinolin-6-yl)-2,3-dihydro-1H-benzo[d]imidazol-1-yl)methyl)cyclo-hexyl)nicotinamide]
< 300	Cc1ncc(Cl)cc1C(=O)N[C@H]1CC[C@H](Cn2c(=O)n(-c3cccc(-c4ncco4)c3)c3ccccc32)CC1 [Example 516, 5-chloro-2-methyl-N-((1r,4r)-4-((3-(3-(oxazol-2-yl)phenyl)-2-oxo-2,3-dihydro-1H-benzo [d]imidazol-1-yl)methyl)cyclo-hexyl)nicotinamide]
< 300	COc1ccc(F)c(-n2c(=O)n(C[C@H]3CC[C@H](NC(=O)c4cc(Cl)cnc4C(F)F)CC3)c3cccnc32)c1 [Example 725, 5-chloro-2-(difluoromethyl)-N-((1r,4r)-4-((3-(2-fluoro-5-methoxyphenyl)-2-oxo-2,3-dihydro-1H-imidazo[4,5-b]pyridin-1-yl)methyl)cyclo-hexyl)nicotinamide]
< 300	CNc1ncc(-n2c(=O)n(C[C@H]3CC[C@H](NC(=O)c4cc(Cl)cnc4C)CC3)c3ccccc32)cc1Cl [Example 522, 5-chloro-N-((1r,4r)-4-((3-(5-chloro-6-(methylamino)pyridin-3-yl)-2-oxo-2,3-dihydro-1H-benzo[d]imidazol-1-yl)methyl)cyclohexyl)-2-methyl-nicotinamide]
< 300	CC(=O)Nc1ccc(-n2c(=O)n(C[C@H]3CC[C@H](NC(=O)c4cc(Cl)cnc4C(F)F)CC3)c3ccccc32)cn1 [Example 508, N-((1r,4r)-4-((3-(6-aceta-midopyridin-3-yl)-2-oxo-2,3-dihydro-1H-benzo[d]imidazol-1-yl)methyl)cyclo-hexyl)-5-chloro-2-(difluoro-methyl)nicotinamide]
< 300	Cc1ncc(Cl)cc1C(=O)N[C@H]1CC[C@H](Cn2c(=O)n(-c3ccc(NCC(F)(F)F)nc3)c3ccccc32)CC1 [Example 436, 5-chloro-2-methyl-N-((1r,4r)-4-((2-oxo-3-(6-((2,2,2-trifluoro-ethyl)amino)pyridin-3-yl)-2,3-dihydro-1H-benzo[d]imidazol-1-yl)methyl)cyclohexyl) nicotinamide]
< 300	Cn1ccc2cc(-n3c(=O)n(C[C@H]4CC[C@H](NC(=O)c5cc(Cl)cnc5C(F)F)CC4)c4cccnc43)cnc21 [Example 730, 5-chloro-2-(difluoromethyl)-N-((1r,4r)-4-((3-(1-methyl-1H-pyrrolo[2,3-b]pyridin-5-yl)-2-oxo-2,3-dihydro-1H-imidazo[4,5-b]pyridin-1-yl)methyl)cyclohexyl)nicotinamide]
< 300	Cc1ncc(Cl)cc1C(=O)N[C@H]1CC[C@H](Cn2c(=O)n(-c3cccc(-n4ccnc4)c3)c3ccccc32)CC1 [Example 539, N-((1r,4r)-4-((3-(3-(1H-imidazol-1-yl)phenyl)-2-oxo-2,3-dihydro-1H-benzo[d]imidazol-1-yl)methyl)cyclohexyl)-5-chloro-2-methylnicotinamide]
< 300	Cn1c(CO)cc2cc(-n3c(=O)n(C[C@H]4CC[C@H](NC(=O)c5cc(Cl)cnc5C(F)F)CC4)c4ccccc43)cnc21 [Example 732, 5-chloro-2-(difluoromethyl)-N-((1r,4r)-4-((3-(2-(hydroxymethyl)-1-methyl-1H-pyrrolo[2,3-b]pyridin-5-yl)-2-oxo-2,3-dihydro-1H-benzo[d]imidazol-1-yl)methyl)cyclohexyl)nicotinamide]
< 300	O=C(N[C@H]1CC[C@H](Cn2c(=O)n(-c3ccc4cncn4c3)c3ccccc32)CC1)c1cc(Cl)cnc1C(F)(F)F [Example 327, 5-chloro-N-((1r,4r)-4-((3-(imidazo[1,5-a]pyridin-6-yl)-2-oxo-2,3-dihydro-1H-benzo[d]imidazol-1-yl)methyl)cyclohexyl)-2-(trifluoromethyl)nicotinamide]
< 300	Cc1ncc(Cl)cc1C(=O)N[C@H]1CC[C@H](Cn2c(=O)n(-c3cccc(N(C)C)c3C#N)c3ccccc32)CC1 [Example 309, 5-choro-N-((1r,4r)-4-((3-(2-cyano-3-(dimethylamino)phenyl)-2-oxo-2,3-dihydro-1H-benzo[d]imidazol-1-yl)methyl)cyclohexyl)-2-methylnicotinamide]
< 300	Cn1cnc2cc(-n3c(=O)n(C[C@H]4CC[C@H](NC(=O)c5cc(Cl)cnc5C(F)(F)F)CC4)c4ccccc43)ccc21 [Example 326, 5-chloro-N-((1r,4r)-4-((1′-methyl-2-oxo-1′H-[1,5′-bibenzo[d]imidazol]-3(2H)-yl)methyl)cyclohexyl)-2-(trifluoromethyl)nicotinamide]
